The text below walks through data of US6916925B1, “Dye labeled imidazoquinoline compounds” (3M Innovative Properties Co., priority 1999, dated 2005).

Data set [1] relates to human peripheral blood mononuclear cells. In words: Flow Cytometry Analysis: binding to mononuclear cells by fluorescence. The format is cell-based. To be noted: for binding to human peripheral blood mononuclear cells (fluorescence intensity histogram): FACScan flow cytometer. How it is done: Whole blood was collected by venipuncture into EDTA vacutainer tubes from healthy human donors. PBMCs were separated from whole blood by ficoll hypaque (Sigma Chemicals, St. Louis, Mo.) density gradient centrifugation as described in Testerman. The PBMCs were suspended at 2×10^6 cells/mL in RPMI 1640 medium containing 10% fetal bovine serum, 2 mM L-glutamine and penicillin/streptomycin solution (RPMI complete). […] Following incubation the cells were washed two times with staining buffer (Dulbecco's Phosphate Buffered Saline without calcium and magnesium, 1% heat inactivated fetal bovine serum, and 0.1% sodium azide). The cells were suspended in staining buffer and transferred to 12×75 mm polystyrene tubes for analysis by flow cytometry. Binding to mononuclear cells was determined by fluorescence using a FACScan flow cytometer (purchased from Becton Dickinson).
The histograms of FIGS. 1 and 2 plot the fluorescence intensity with the more highly fluorescent cell populations being seen further to the right. The peak area labeled as M3 in the histograms indicates the fluorescence binding to the monocyte population in the peripheral blood mononuclear cells.

Data set [2] has as its system Peripheral blood mononuclear cells (PBMCs). In words: Cytokine Induction in Human Cells, Test Method 1 (IFN by A549/encephalomyocarditis bioassay, TNF by ELISA). The format is cell-based. Conditions: 24 hours. The text has this:
An in vitro human blood cell system is used to assess cytokine induction by compounds of the invention. Activity is based on the measurement of interferon and tumor necrosis factor (α) (IFN and TNF, respectively) secreted into culture media as described by Testerman et. al. in “Cytokine Induction by the Immunomodulators Imiquimod and S27609”, Journal of Leukocyte Biology, 58, 365-372 (September, 1995).
Whole blood from healthy human donors is collected by venipuncture into EDTA vacutainer tubes. Peripheral blood mononuclear cells (PBMCs) are separated from whole blood by Histopaque®-1077 (Sigma Chemicals, St. Louis, Mo.) density gradient centrifugation. The PBMCs are washed twice with Hank's Balanced Salts Solution (Sigma) and are then suspended at 2×10^6 cells/mL in RPMI 1640 medium containing 10% fetal bovine serum, 2 mM L-glutamine and 1% penicillin/streptomycin solution (RPMI complete). 1 mL portions of PBMC suspension are added to 12 or 24 well flat bottom sterile tissue culture plates.
The compounds are solubilized in ethanol, dimethyl sulfoxide or pyrogen free water then diluted with tissue culture water, 0.01N sodium hydroxide or 0.01N hydrochloric acid (The choice of solvent will depend on the chemical characteristics of the compound being tested.). Ethanol or DMSO concentration should not exceed a final concentration of 1% for addition to the culture wells. The compounds are generally tested using a concentration range from about 0.01 μg/mL to about 50 μg/mL.
The solution of test compound is added to the wells containing 1 ml of PBMCs in media. The plates are covered with plastic lids, mixed gently and then incubated for 24 hours at 37° C. with a 5% carbon dioxide atmosphere.
Following incubation the cell-free culture supernatant is removed with a sterile polypropylene pipet and transferred to a 12×75 mm polypropylene tube. The tubes are then centrifuged at 1000 rpm ([…]) for 10 to 15 minutes at 4° C. The supernatant is removed and placed into 2 mL sterile freezing vials. Samples are maintained at −70° C. until analyzed for cytokines.
Interferon concentrations are determined by bioassay using A549 human lung carcinoma cells challenged with encephalomyocarditis. The details of the bioassay method have been described by G. L. Brennan and L. H. Kronenberg in “Automated Bioassay of Interferons in Micro-test Plates”, Biotechniques, June/July, 78, 1983, incorporated herein by reference. Briefly stated the method is as follows: A549 cells are incubated with dilutions of IFN standard or test samples at 37° C. for 24 hours. The incubated cells are then infected with an inoculum of encephalomyocarditis virus. The infected cells are incubated for an additional 24 hours at 37° C. before quantifying for viral cytopathic effect. The viral cytopathic effect is quantified by staining of the wells with a vital dye such as crystal violet followed by visual scoring of the plates. Results are expressed as alpha reference units/mL based on the value obtained for an NIH Human Leukocyte IFN standard.
Tumor necrosis factor (α) (TNF) concentration is determined using an ELISA kit available from Genzyrne, Cambridge, Mass. The results are expressed as pg/ml.
The labeled compound of Example 1 and the unlabeled intermediate (2-(4-amino-2-ethoxymethyl-1H-imidazo[4,5-c]quinolin-1-yl)ethaneamine trihydrochloride) were tested side by side for their ability to induce cytokine biosynthesis using Test Method 1 described above. The compound of Example 1 was solubilized in ethanol. The unlabeled intermediate was solubilized in tissue culture water.

For data set [3] the test system is unchanged. Kind of data set: Cytokine Induction in Human Cells, Test Method 2 (IFN-α and TNF-α by ELISA). On the set-up: key: +: indicates that the compound induced the indicated cytokine at that particular concentration; −: indicates that the compound did not induce the indicated cytokine at that particular concentration. The format is cell-based. To be noted: 18 to 24 hours. From the text:
An in vitro human blood cell system is used to assess cytokine induction. Activity is based on the measurement of interferon and tumor necrosis factor (α) (IFN and TNF, respectively) secreted into culture media as described by Testerman et. al. In “Cytokine Induction by the Immunomodulators Imiquimod and S-27609”, Journal of Leukocyte Biology, 58, 365-372 (September, 1995).
Whole blood from healthy human donors is collected by venipuncture into EDTA vacutainer tubes. Peripheral blood mononuclear cells (PBMCs) are separated from whole blood by density gradient centrifugation using Histopaque®-1077. The PBMCs are washed twice with -Hank's Balanced Salts Solution and then are suspended at 3-4×10^6 cells/mL in RPMI complete. The PBMC suspension is added to 48 well flat bottom sterile tissue culture plates (Costar, Cambridge, Mass. or Becton Dickinson Labware, Lincoln Park, N.J.) containing an equal volume of RPMI complete media containing test compound.
The compounds are solubilized in dimethyl sulfoxide (DMSO). The DMSO concentration should not exceed a final concentration of 1% for addition to the culture wells. The compounds are generally tested at concentrations ranging from 0.12 to 30 μM.
The solution of test compound is added at 60 μM to the first well containing RPMI complete and serial 3 fold dilutions are made in the wells. The PBMC suspension is then added to the wells in an equal volume, bringing the test compound concentrations to the desired range (0.12 to 30 μM). The final concentration of PBMC suspension is 1.5-2×10^6 cells/mL. The plates are covered with sterile plastic lids, mixed gently and then incubated for 18 to 24 hours at 37° C. in a 5% carbon dioxide atmosphere.
Following incubation the plates are centrifuged for 5-10 minutes at 1000 rpm (˜200×g) at 4° C. The cell-free culture supernatant is removed with a sterile polypropylene pipet and transferred to sterile polypropylene tubes. Samples are maintained at −30 to −70° C. until analysis. The samples are analyzed for interferon (α) and for tumor necrosis factor (α) by ELISA
Interferon (α) concentration is determined by ELISA using a Human Multi-Species kit from PBL Biomedical Laboratories, New Brunswick, N.J. Results are expressed in pg/mL.
Tumor necrosis factor (α) (TNF)concentration is determined using ELISA kits available from Genzyme, Cambridge, Mass.; R&D Systems, Minneapolis, Minn.; or Phanningen, San Diego, Calif. Results are expressed in pg/mL.
The labeled compounds of Examples 2 and 3 were tested for their ability to induce cytokine biosynthesis using Test Method 2 described above.

Take `CCOCc1nc2c(N)nc3ccccc3c2n1CCNC(=O)CCCCCNC(=O)CCc1ccc2n1[B-](F)(F)[N+]1=C(C)C=C(C)C1=C2` [Example 1, N-[2-(4-Amino-2-ethoxymethyl-1H-imidazo[4,5-c]quinolin-1-yl)ethyl]-6-[(4,4-difluoro-5,7-dimethyl-4-bora-3a,4a-diaza-s-indacene-3-propionyl)amino]hexanoamide]: the “binding to human peripheral blood mononuclear cells (fluorescence intensity histogram)” value in data set [1] (incubated 1 hour at 37° C.) was “binds to human peripheral blood mononuclear cells”. Moreover, the “binding to monocytes compared with other PBMCs” value in data set [1] (incubated 1 hour at 37° C., peak area M3 = monocyte population) is recorded as “monocytes bind more effectively than other PBMCs”. In addition, the binding to monocytes result in data set [1] (incubated with human PBMCs at 4° C. for 1 hour) is on record as “did not show significant binding”. Besides, the IFN in data set [2] (concentration 0.01 μg/ml) was determined as 16 U/ml; in data set [2] (concentration 0.03 μg/ml) it was 47 U/ml; in data set [2] (concentration 0.1 μg/ml), 554 U/ml; in data set [2] (concentration 0.3 μg/ml), 2878 U/ml; in data set [2] (concentration 1 μg/ml), 421 U/ml; in data set [2] (concentration 3 μg/ml), 62 U/ml. Further, the TNF was found to be 0 pg/mL in data set [2] (concentration 0.01 μg/ml); 42 pg/mL in data set [2] (concentration 0.03 μg/ml); 46 pg/mL in data set [2] (concentration 0.1 μg/ml); 73 pg/mL in data set [2] (concentration 0.3 μg/ml); 369 pg/mL in data set [2] (concentration 1 μg/ml); 869 pg/mL in data set [2] (concentration 3 μg/ml).

As to `CCOCc1nc2c(N)nc3ccccc3c2n1CCN.Cl.Cl.Cl` [Unlabeled Intermediate, 2-(4-amino-2-ethoxymethyl-1H-imidazo[4,5-c]quinolin-1-yl)ethaneamine trihydrochloride], the IFN in data set [2] (concentration 0.1 μg/ml) worked out at 421 U/ml; in data set [2] (concentration 0.3 μg/ml), 2878 U/ml; in data set [2] (concentration 1 μg/ml), 2878 U/ml; in data set [2] (concentration 3 μg/ml), 81 U/ml; in data set [2] (concentration 10 μg/ml), 140 U/ml. In addition, the TNF in data set [2] (concentration 0.1 μg/ml) is 0 pg/mL; in data set [2] (concentration 0.3 μg/ml) it was 0 pg/mL; in data set [2] (concentration 1 μg/ml), 49 pg/mL; in data set [2] (concentration 3 μg/ml), 538 pg/mL; in data set [2] (concentration 10 μg/ml), 2640 pg/mL.

Regarding `CCCCc1nc2c(N)nc3ccccc3c2n1CCNC(=S)Nc1ccc(-c2c3ccc(=O)cc-3oc3cc(O)ccc23)c(C(=O)O)c1` [Example 3, 5-{[({2-[4-Amino-2-butyl-1H-imidazo[4,5-c]quinolin-1-yl]ethyl}amino)carbonthioyl]amino}-2-(6-hydroxy-3-oxo-3H-xanthen-9-yl)benzoic Acid], the melting point was > 245 °C. Moreover, in data set [3] (concentration 0.014 μg/ml), the IFN induction result is reported as “−” and the TNF induction entry is recorded as “−”. Also, in data set [3] (concentration 0.041 μg/ml), the IFN induction entry is on record as “−” and the TNF induction entry was “−”. Further, in data set [3] (concentration 0.12 μg/ml), the IFN induction entry was “−” and the TNF induction entry is “−”. Moreover, in data set [3] (concentration 0.37 μg/ml), the IFN induction result is “−” and the TNF induction entry is “−”. In data set [3] (concentration 1.11 μg/ml), the IFN induction result is on record as “−” and the TNF induction entry was “−”. Further, in data set [3] (concentration 3.33 μg/ml), the IFN induction entry is recorded as “−” and the TNF induction entry was “−”. Besides, in data set [3] (concentration 10 μg/ml), the IFN induction entry is on record as “+” and the TNF induction result is recorded as “−”. Also, in data set [3] (concentration 30 μg/ml), the IFN induction result is recorded as “+” and the TNF induction entry was “+”.

Regarding `COCCc1nc2c(N)nc3ccccc3c2n1CCCCNC(=S)Nc1ccc(-c2c3ccc(=O)cc-3oc3cc(O)ccc23)c(C(=O)O)c1` [Example 2], the melting point was > 245 °C. In data set [3] (concentration 0.014 μg/ml), the IFN induction entry is “−” and the TNF induction result is on record as “−”. In data set [3] (concentration 0.041 μg/ml), the IFN induction result was “−” and the TNF induction entry is reported as “−”. Also, in data set [3] (concentration 0.12 μg/ml), the IFN induction result is “−” and the TNF induction result is reported as “−”. In data set [3] (concentration 0.37 μg/ml), the IFN induction entry is listed as “−” and the TNF induction result is given as “−”. For the same compound, in data set [3] (concentration 1.11 μg/ml), the IFN induction result was “−” and the TNF induction result is “−”. In data set [3] (concentration 3.33 μg/ml), the IFN induction entry is “−” and the TNF induction entry was “+”. In data set [3] (concentration 10 μg/ml), the IFN induction result is “+” and the TNF induction result was “+”. In data set [3] (concentration 30 μg/ml), the IFN induction result is given as “+” and the TNF induction entry is listed as “+”.

As for `Cc1cc(C)n2c1C=C1C=CC(CCC(=O)NCCCCCC(=O)ON3C(=O)CCC3=O)=[N+]1[B-]2(F)F` [BODIPY fluorophore, 6-((4,4-difluoro-5,7-dimethyl4-bora-3a,4a-diaza-s-indacene-3-propionyl)amino)hexanoic acid, succinimidyl ester, reference compound], the “binding to human peripheral blood mononuclear cells (fluorescence intensity histogram)” value in data set [1] (incubated 1 hour at 37° C.) is on record as “does not”.
